From patent US20060269491A1, “UVA (> 360-400) and UVB (300-325) specific sunscreens” (priority 2000, published 2006)

Assay: UV absorbance of sunscreen compositions (FIG. 9)
Format: physicochemical
From the text: FIG. 9 depicts the UV absorbance of two specific suncreen compositions.
Thus, to adequately protect human skin from the UV-induced enzymes that degrade the collagen matrix, and which inhibit collagen biosynthesis, a sunscreen formulation must block both radiation of less then 325 nm and that between about 360 nm and 400 nm. In our prior application Ser. No. 09/089,914, we proposed a sunscreen comprising a UVB blocker such as PARSOL MCX and a UVA blocker such as PARSOL 1789. Other UVB blockers known in the art, and in light of the information provided herein, are also suitable. However, various UVA blockers, including PARSOL 1789 and various others such as TINOSORB brand blockers (available from Ciba, Basel, Switzerland) are relatively broadband blockers and while blocking some of the UVA radiation in the >360-400 nm range, are not optimized for that region. […] As noted above, these wavelengths are greater than the 360 nm the industry desires to block with its compounds, because it is generally believed that a broad band absorber will provide the desired blocking effects. To the contrary, we have shown that it is sufficient to block narrow bands of UV radiation, namely 295-325 nm in the UVB, more preferably 305-325 nm, and those wavelengths above 360 nm in the UVA, and that blocking these wavelengths achieves the desired prevention of UV-induced […] of MMPs in human skin.

UV absorbance (UVA1 area of 340-360 nm): appears adequate
UV absorbance (area of 390-400 nm): almost no absorbance
UV absorbance (at 370 nm): falls off
UV absorbance (to 380 nm): falls off dramatically
Compound: COc1ccc(C(=O)CC(=O)c2ccc(C(C)(C)C)cc2)cc1 [PARSOL 1789]
